Tests used:
[1] = test system: Caki renal cancer xenografts; experiment: Caki renal cancer xenograft tumor model; assay type: in vivo, mouse
Experimental: (§1) FIG. 12. Various Xenograft tumors stained with CD34 antibodies (brown) to identify endothelium. The B16 mouse melanoma cell line was established as a syngeneic tumor in an immunocompetent mouse model and the human Caki renal cancer and A2780 ovarian xenograft tumors in immunocompromised mice. The treated mice were gavaged with 60 mg/kg/day SHetA2 and the untreated were gavaged with solvent only. The tumors were excised and sections were stained with the anti-CD34 antibody to detect endothelial cells (brown stain).
FIG. 20. Mice harboring Caki renal cancer xenografts were treated with 60 mg/kg/day SHetA2 or PEG400 vehicle for 15 days. After another 15 days of growth, the tumors were removed, fixed, embedded and sections. Sections were stained with PAS to identify glycoproteins and lysosomes. The untreated tumor is on the left and the treated tumor is on the right.
(§2) Survival was the primary endpoint of those studies. […] Tumor growth was the primary endpoint of the renal cancer study.

dorsal skin = experiment: Topical irritancy in Skh hairless mice; assay type: in vivo; details: topical, dorsal skin, 4 days, 2-log dose range
Experimental: Female Skh hairless mice, 6-8 weeks old, were treated topically on the dorsal skin for 4 days over a 2-log concentration dose range with various compounds. Retinoic acid receptor-Hets were evaluated in A, while retinoic acid receptor-independent Flex-Hets were evaluated in B. Daily flaking and abrasion scores were combined to calculate a single cutaneous toxicity score for each mouse. Each treatment group consisted of 4 mice, and group averages were used to plot cutaneous toxicity against doses of the compounds.
Topical irritancy was evaluated according to published procedures (29). Briefly, female Skh hairless mice, 6-8 weeks old, were treated topically on the dorsal skin for 4 days over a 2-log concentration dose range with various compounds. Daily flaking and abrasion scores were combined to calculate a single cutaneous toxicity score for each mouse. Each treatment group consists of 4 mice, and group averages are used to plot cutaneous toxicity against dose of the retinoid compound.

[2] = test system: NCI human tumor cell line panel; experiment: SHetA2 cytotoxicity in NCI human tumor cell line panel; assay type: cell-based
Experimental: The SHetA2 compound was evaluated in the National Cancer Institute (NCI) human tumor cell line panel by the Developmental Therapeutics Program (DTP). The human tumor cell lines were grown in RPMI 1640 medium containing 5% fetal bovine serum and 2 mM L-glutamine. Cells were inoculated into 96 well microtiter plates at densities ranging from 5,000 to 40,000 cells/well depending on the doubling time of individual cell lines and incubated for 24 h prior to addition of SHetA2. After 24 h, two plates of each cell line were fixed in situ with TCA, to represent a measurement of the cell population for each cell line at the time of drug addition (Tz). Drugs were dissolved in dimethyl sulfoxide (DMSO) and diluted in complete medium containing 50 μg/ml gentamicin, prior to addition to the culture wells. […] […] The absorbance was read on an automated plate reader at a wavelength of 515 nm. Using the seven absorbance measurements (time zero, (Tz), control growth, (C), and test growth in the presence of drug at the five concentration levels (Ti)), the GI50 was calculated from [(Ti−Tz)/(C−Tz)]×100=50. […]

B16 mouse melanoma = experiment: B16 melanoma syngeneic tumor model; assay type: in vivo
Experimental: as §1, §2

C6 glioma = experiment: Rat glioma (brain cancer) model, MRI; assay type: in vivo; details: oral 60 mg/kg/day; vs untreated control
Experimental: FIG. 9. SHetA2 inhibition of Angiogenesis. C6 glioma cells were injected into the brains of 2 rats. One week later, one rat was gavaged with 60 mg/kg/day SHetA2 on each Monday, Wednesday and Friday. Blood vessels were imaged by MRI.
FIG. 10. […] C6 glioma cells were injected into the brains of 2 rats. One week later, one rat was gavaged with 60 mg/kg/day SHetA2 on each Monday, Wednesday and Friday. The blood flow was measured by MRI imaging.
FIG. 11. SHetA2 inhibition of glioma tumor growth. C6 glioma cells were injected into the brains of 2 rats. One week later, one rat was gavaged with 60 mg/kg/day SHetA2 on each Monday, Wednesday and Friday. The tumor size was measured by MRI imaging.
In this in vivo model, glioma cells are injected into the brains of rats and the growth of the tumor and development of blood vessels in the tumor is measured by magnetic resonance imaging (MRI).

[3] = test system: A2780 ovarian xenograft tumors; experiment: A2780 ovarian xenograft tumor model; assay type: in vivo, mouse; details: ovarian cancer model
Experimental: as §1, §2

`CC1(C)CC(C)(C)c2cc(NC(=S)Nc3ccc([N+](=O)[O-])cc3)ccc2S1` [SHetA2] was tested, and the “PAS stain of renal xenograft tumors” value ([1]; 60 mg/kg/day for 15 days, treated vs untreated tumors) was “increase in general glycoprotein expression and lysosomal staining”, the Tumor growth ([1]; renal cancer model) was “decreased tumor growth” and the “Development of blood vessels inside tumors (anti-CD34 staining)” value ([1]; renal, oral 60 mg/kg/day) was “inhibited the development of blood vessels”. The “Topical irritancy (cutaneous toxicity score)” value (dorsal skin) was “did not induce topical irritancy”, the percent growth levels ([2]; 10 and 100 μM SHetA2, majority of cell lines) was “negative percent growth levels” and the GI50 values ([2]; 55 cell lines, 9 cancer types, 48 h) was “micromolar range”. For the same compound, the Survival (B16 mouse melanoma) was “improved survival”, the “Angiogenesis of glioma tumors (MRI)” value (C6 glioma) was “inhibited the angiogenesis” and the “Growth of glioma tumors (MRI)” value (C6 glioma) was “inhibited the angiogenesis and growth of the tumors”. For the same compound, the Survival [3] was “improved survival”.

From patent publication US7612107B2, “Treatment and inhibition of disease conditions using flexible heteroarotinoids” (The Board of Regents of the University of Oklahoma, priority 2005, dated 2009)
